# Measurements from article PMC6981637, “Tetrahydroquinoline-Isoxazole/Isoxazoline Hybrid Compounds as Potential Cholinesterases Inhibitors: Synthesis, Enzyme Inhibition Assays, and Molecular Modeling Studies” (International Journal of Molecular Sciences, 2019).
# Several values for one entry are separate records, joined by “and”; a condition that tells them apart may be missing. Equal values may be shown once.
# What was measured:
# [1] = molecular target: AChE (from Electrophorus electricus) (Electrophorus electricus, UniProt O42275); conditions: for IC50: read-out: AChE (IC50)
# BChE (from bovine serum) = molecular target: T1, BChE (from bovine serum) (Bos taurus, UniProt P32749); assay: BChE inhibitory activity (Ellman method); type: biochemical; conditions: for IC50: Table 2, THQ–isoxazole hybrids 6, average from three independent experiments ± SEM, read-out: BChE (IC50); for selectivity against BChE: conclusions
# T1 construct: purchased Sigma-Aldrich
# T1 sequence (P32749 29-602): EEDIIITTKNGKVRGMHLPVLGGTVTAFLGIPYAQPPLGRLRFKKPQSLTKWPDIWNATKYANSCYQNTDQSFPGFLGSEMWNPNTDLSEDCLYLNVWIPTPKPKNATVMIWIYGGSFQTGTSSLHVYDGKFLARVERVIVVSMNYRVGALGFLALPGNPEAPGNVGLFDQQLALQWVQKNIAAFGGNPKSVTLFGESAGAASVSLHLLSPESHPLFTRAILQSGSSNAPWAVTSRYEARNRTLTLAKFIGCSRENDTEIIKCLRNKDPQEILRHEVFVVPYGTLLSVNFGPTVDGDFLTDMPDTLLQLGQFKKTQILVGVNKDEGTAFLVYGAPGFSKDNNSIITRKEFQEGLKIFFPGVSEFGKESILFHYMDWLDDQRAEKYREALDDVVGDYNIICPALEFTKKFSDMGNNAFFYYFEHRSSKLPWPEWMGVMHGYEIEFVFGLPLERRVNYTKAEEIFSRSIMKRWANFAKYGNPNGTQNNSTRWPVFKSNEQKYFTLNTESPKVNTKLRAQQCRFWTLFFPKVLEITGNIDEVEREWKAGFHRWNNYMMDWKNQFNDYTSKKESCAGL
# Chain of AChE (from Electrophorus electricus) (O42275 24-633): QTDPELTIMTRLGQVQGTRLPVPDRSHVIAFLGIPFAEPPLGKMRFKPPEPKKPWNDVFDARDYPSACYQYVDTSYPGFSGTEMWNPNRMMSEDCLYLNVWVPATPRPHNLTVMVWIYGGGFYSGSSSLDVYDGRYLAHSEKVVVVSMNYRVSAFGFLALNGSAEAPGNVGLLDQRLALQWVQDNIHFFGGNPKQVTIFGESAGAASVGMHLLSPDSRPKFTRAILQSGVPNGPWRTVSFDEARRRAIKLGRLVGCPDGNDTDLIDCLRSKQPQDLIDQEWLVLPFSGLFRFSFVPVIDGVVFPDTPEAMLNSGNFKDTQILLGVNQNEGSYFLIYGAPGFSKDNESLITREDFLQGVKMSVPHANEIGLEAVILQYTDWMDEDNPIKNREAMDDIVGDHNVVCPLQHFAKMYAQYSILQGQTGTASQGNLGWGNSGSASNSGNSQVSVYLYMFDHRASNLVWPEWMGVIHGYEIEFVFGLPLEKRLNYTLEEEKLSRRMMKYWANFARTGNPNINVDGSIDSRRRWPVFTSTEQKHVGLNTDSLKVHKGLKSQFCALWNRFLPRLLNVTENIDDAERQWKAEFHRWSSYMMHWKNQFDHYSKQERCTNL
smiles,measurement,setting,value
"COc1cc(Cl)c2c(c1)C(N1CCCC1=O)CCN2Cc1cc(-c2ccc(OC)c(OC)c2)no1 (centres unmarked) [6j, 5-((8′-chloro-6′-methoxy-4′-(2′’-oxopyrrolidin-1′’-yl)-3′,4′-dihydroquinolin-1′(2′H)-yl)methyl)-3-(3,4-dimethoxyphenyl)isoxazole]",SI,[1],2.72
same,IC50,[1],54.69 ± 0.01 µM
same,IC50,BChE (from bovine serum),149 ± 0.02 µM
"COc1ccc2c(c1)C(N1CCCC1=O)CCN2Cc1cc(-c2cc(OC)c(OC)c(OC)c2)no1 (centres unmarked) [6k, 3-(3,4,5-trimethoxyphenyl)-5-((6′-methoxy-4′-(2′’-oxopyrrolidin-1′’-yl)-3′,4′-dihydroquinolin-1′(2′H)-yl)methyl)isoxazole]",SI,[1],3.63
same,IC50,[1],20.19 ± 0.02 µM
same,IC50,BChE (from bovine serum),73.26 ± 0.01 µM
"O=C1CCCN1C1CCN(Cc2cc(-c3ccccc3)no2)c2ccc(Cl)cc21 (centres unmarked) [6l, 5-((6′-chloro-4′-(2′’-oxopyrrolidin-1′’-yl)-3′,4′-dihydroquinolin-1′(2′H)-yl)methyl)-3-phenylisoxazole]",SI,[1],0.15
same,IC50,[1],92.01 ± 0.05 µM
same,IC50,BChE (from bovine serum),14.11 ± 0.02 µM
same,selectivity against BChE,BChE (from bovine serum),more selective
"COc1ccc(-c2cc(CN3CCC(N4CCCC4=O)c4cc(Cl)ccc43)on2)cc1 (centres unmarked) [6m, 5-((6′-chloro-4′-(2′’-oxopyrrolidin-1′’-yl)-3′,4′-dihydroquinolin-1′(2′H)-yl)methyl)-3-(4-methoxyphenyl)isoxazole]",SI,[1],1.39
same,IC50,[1],13.27 ± 0.01 µM
same,IC50,BChE (from bovine serum),18.42 ± 0.01 µM
"COc1ccc(-c2cc(CN3CCC(N4CCCC4=O)c4cc(Cl)ccc43)on2)cc1OC (centres unmarked) [6n, 5-((6′-chloro-4′-(2′’-oxopyrrolidin-1′’-yl)-3′,4′-dihydroquinolin-1′(2′H)-yl)methyl)-3-(3,4-dimethoxyphenyl)isoxazole]",SI,[1],2.75
same,IC50,[1],8.98 ± 0.01 µM
same,IC50,BChE (from bovine serum),24.67 ± 0.01 µM
"COc1ccc(-c2cc(CN3CCC(N4CCCC4=O)c4cc(Cl)cc(Cl)c43)on2)cc1OC (centres unmarked) [6o, 5-((6′,8′-dichloro-4′-(2′’-oxopyrrolidin-1′’-yl)-3′,4′-dihydroquinolin-1′(2′H)-yl)methyl)-3-(3,4-dimethoxyphenyl)isoxazole]",SI,[1],3.88
same,IC50,[1],80.89 ± 0.04 µM
same,IC50,BChE (from bovine serum),313.82 ± 0.01 µM
"COc1cc(-c2cc(CN3CCC(N4CCCC4=O)c4cc(Cl)ccc43)on2)cc(OC)c1OC (centres unmarked) [6p, 5-((6′-chloro-4′-(2′’-oxopyrrolidin-1′’-yl)-3′,4′-dihydroquinolin-1′(2′H)-yl)methyl)-3-(3,4,5-trimethoxyphenyl)isoxazole]",SI,[1],1.11
same,IC50,[1],41.95 ± 0.11 µM
same,IC50,BChE (from bovine serum),46.84 ± 0.01 µM
"CCc1ccc2c(c1)C(N1CCCC1=O)CCN2Cc1cc(-c2ccccc2)no1 (centres unmarked) [6q, 5-((6′-ethyl-4′-(2′’-oxopyrrolidin-1′’-yl)-3′,4′-dihydroquinolin-1′(2′H)-yl)methyl)-3-phenylisoxazole]",SI,[1],1.43
same,IC50,[1],75.95 ± 0.04 µM
same,IC50,BChE (from bovine serum),108.28 ± 0.01 µM
"CCc1ccc2c(c1)C(N1CCCC1=O)CCN2Cc1cc(-c2ccc(OC)cc2)no1 (centres unmarked) [6r, 5-((6′-ethyl-4′-(2′’-oxopyrrolidin-1′’-yl)-3′,4′-dihydroquinolin-1′(2′H)-yl)methyl)-3-(4-methoxyphenyl)isoxazole]",SI,[1],0.38
same,IC50,[1],18.83 ± 0.003 µM
same,IC50,BChE (from bovine serum),< 7.18 µM and 7.18 µM
"CCc1cc(Cl)c2c(c1)C(N1CCCC1=O)CCN2Cc1cc(-c2ccc(OC)c(OC)c2)no1 (centres unmarked) [6s, 5-((8′-chloro-6′-ethyl-4′-(2′’-oxopyrrolidin-1′’-yl)-3′,4′-dihydroquinolin-1′(2′H)-yl)methyl)-3-(3,4-dimethoxyphenyl)isoxazole]",SI,[1],0.83
same,IC50,[1],26.82 ± 0.002 µM
same,IC50,BChE (from bovine serum),22.28 ± 0.004 µM
"O=C1CCCN1C1CCN(Cc2cc(-c3ccccc3)no2)c2ccc(F)cc21 (centres unmarked) [6u, 5-((6′-fluor-4′-(2′’-oxopyrrolidin-1′’-yl)-3′,4′-dihydroquinolin-1′(2′H)-yl)methyl)-3-phenylisoxazole]",SI,[1],0.15
same,IC50,[1],116.63 ± 0.01 µM
same,IC50,BChE (from bovine serum),17.74 ± 0.01 µM
same,selectivity against BChE,BChE (from bovine serum),more selective
"COc1ccc(-c2cc(CN3CCC(N4CCCC4=O)c4cc(F)ccc43)on2)cc1 (centres unmarked) [6v, 5-((6′-fluoro-4′-(2′’-oxopyrrolidin-1′’-yl)-3′,4′-dihydroquinolin-1′(2′H)-yl)methyl)-3-(4-methoxyphenyl)isoxazole]",SI,[1],1.97
same,IC50,[1],42.48 ± 0.004 µM
same,IC50,BChE (from bovine serum),83.75 ± 0.01 µM
"COc1ccc(-c2cc(CN3CCC(N4CCCC4=O)c4cc(F)ccc43)on2)cc1OC (centres unmarked) [6w, 5-((6′-fluoro-4′-(2′’-oxopyrrolidin-1′’-yl)-3′,4′-dihydroquinolin-1′(2′H)-yl)methyl)-3-(3,4-dimethoxyphenyl)isoxazole]",SI,[1],2.79
same,IC50,[1],16.83 ± 0.002 µM
same,IC50,BChE (from bovine serum),46.92 ± 0.01 µM
"COc1cc(-c2cc(CN3CCC(N4CCCC4=O)c4cc(F)ccc43)on2)cc(OC)c1OC (centres unmarked) [6x, 5-((6′-fluoro-4′-(2′’-oxopyrrolidin-1′’-yl)-3′,4′-dihydroquinolin-1′(2′H)-yl)methyl)-3-(3,4,5-trimethoxyphenyl)isoxazole]",SI,[1],6.57
same,IC50,[1],24.83 ± 0.003 µM
same,IC50,BChE (from bovine serum),163.12 ± 0.01 µM
"O=C1CCCN1C1CCN(Cc2cc(-c3ccccc3)no2)c2ccc(Br)cc21 (centres unmarked) [6y, 5-((6′-bromo-4′-(2′’-oxopyrrolidin-1′’-yl)-3′,4′-dihydroquinolin-1′(2′H)-yl)methyl)-3-phenylisoxazole]",SI,[1],0.87
same,IC50,[1],97.84 ± 0.01 µM
same,IC50,BChE (from bovine serum),84.91 ± 0.01 µM
"COc1ccc(-c2cc(CN3CCC(N4CCCC4=O)c4cc(Br)ccc43)on2)cc1 (centres unmarked) [6z, 3-(4-methoxyphenyl)-5-((6′-bromo-4′-(2′’-oxopyrrolidin-1′’-yl)-3′,4′-dihydroquinolin-1′(2′H)-yl)methyl)isoxazole]",SI,[1],0.48
same,IC50,[1],12.19 ± 0.005 µM
same,IC50,BChE (from bovine serum),< 7.18 µM and 5.81 µM
